We go through 24 molecules from ChEMBL document CHEMBL4414671, “Antinociceptive Grayanane Diterpenoids from the Leaves of Pieris japonica” (2019).

One assay concerns Mus musculus. Kind of assay: Antinociceptive activity in mouse as reduction in acetic acid-induced writhes at 0.04 mg/kg,ip relative to control. Type of assay: functional.
By inhibition in vivo is commonly meant the share of the control response that was lost under treatment. High values mean a response far below the control, low ones a response near the control. Take `C=C1[C@@H]2CC[C@@H]3C[C@]2(C=C3CO)C[C@@H](O)[C@@]2(O)[C@H]1C[C@H](O)C2(C)C`: the inhibition in vivo at 0.04 mg/kg came to 56.3%.

The molecule `CC1(C)[C@@H](O)[C@H](O)[C@H]2[C@](C)(O)[C@@H]3CC[C@@H]4[C@@H](O)[C@@]3(C[C@@H](O)[C@@]21O)C[C@@]4(C)O` had an inhibition in vivo at 0.04 mg/kg of 88.7%.

The molecule `CO[C@H]1[C@H](O)C(C)(C)[C@@]2(O)[C@H](O)C[C@]34C[C@@](C)(O)[C@H](CC[C@H]3[C@@](C)(O)[C@H]12)[C@H]4O` displayed an inhibition in vivo at 0.04 mg/kg of 59.1%.

As for `CC1=C[C@@]23C[C@@H](O)[C@@]4(O)[C@@H]([C@@H](O)[C@H](O)C4(C)C)[C@](C)(O)[C@@H]2CC[C@@H]1[C@H]3O`, the inhibition in vivo at 0.04 mg/kg is 61.9%.

The next assay deals with Mus musculus. The assay can be described thus: Antinociceptive activity in mouse as reduction in acetic acid-induced writhes at 0.2 mg/kg, ip relative to control. It counts as functional.
Consider `C=C1[C@@H]2CC[C@@H]3C[C@@]2(C[C@@H](O)[C@@]2(O)[C@H]1CC(=O)C2(C)C)C[C@@]3(C)O`, for which the inhibition in vivo at 0.2 mg/kg is 59.1%.

In the next assay the test system is Mus musculus. The assay can be described thus: Antinociceptive activity in mouse as reduction in acetic acid-induced writhes at 1 mg/kg, ip relative to control. It counts as functional.
`C=C1[C@@H]2CC[C@@H]3C[C@@]2(C[C@@H](O)[C@@]2(O)[C@H]1CC(=O)C2(C)C)C[C@@]3(C)O` yielded an inhibition in vivo at 1 mg/kg of 76.3%.

The next assay concerns Mus musculus. The assay can be described thus: Antinociceptive activity in mouse as reduction in acetic acid-induced writhes at 5 mg/kg, ip relative to control. Type of assay: functional.
Regarding `C=C1[C@@H]2[C@@H](O)[C@H](O)C(C)(C)[C@@]2(O)[C@H](O)C[C@]23C=C(C)[C@H](CC[C@@H]12)[C@H]3O`, the inhibition in vivo at 5 mg/kg was above 50%.

In the case of `CC1=C2C[C@H](O)C(C)(C)[C@]23O[C@]12CC[C@@H]1C[C@@]2(C[C@H]3O)C[C@@]1(C)O`, the inhibition in vivo at 5 mg/kg is above 50%.

Take `C=C1[C@@H]2[C@@H](OC)[C@H](O)C(C)(C)[C@@]2(O)[C@H](O)C[C@]23C[C@@](C)(O)[C@H](CC[C@@H]12)[C@H]3O`: the inhibition in vivo at 5 mg/kg is above 50%.

Take `C=C1[C@@H]2[C@H](O)[C@H](O)C(C)(C)[C@@]2(O)[C@H](O)C[C@]23C[C@@](C)(O)[C@H](CC[C@@H]12)[C@H]3O`: the inhibition in vivo at 5 mg/kg is above 50%.

On to `C=C1[C@@H]2CC[C@@H]3C[C@@]2(C[C@@H](O)[C@@]2(O)[C@@H]1[C@H](O)[C@H](O)C2(C)C)C[C@@]3(C)O`, for which the inhibition in vivo at 5 mg/kg was above 50%.

The molecule `C=C1[C@@H]2[C@@H](O)[C@H](O)C(C)(C)[C@@]2(O)[C@H](O)C[C@]23C[C@@](C)(O)[C@H](CC[C@@H]12)[C@H]3OC(=O)CC` returned an inhibition in vivo at 5 mg/kg above 50%.

Turning to `C=C1[C@H]2C[C@H](O)C(C)(C)[C@]2(O)CC[C@@]23C[C@@H](CC[C@@H]12)[C@@](O)(CO)C3`, the inhibition in vivo at 5 mg/kg is above 50%.

In turn, `C=C1[C@@H]2CC[C@@H]3C[C@@]2(C[C@@H](O)[C@@]2(O)[C@H]1CC(=O)C2(C)C)C[C@@]3(C)O` had an inhibition in vivo at 5 mg/kg of 87.3%.

The molecule `C=C1[C@@H]2[C@@H](OC)[C@H](O)C(C)(C)[C@@]2(O)[C@H](O)C[C@]23C[C@@](C)(O)[C@H](CC[C@@H]12)[C@H]3OC(=O)C(C)O` (stereo partly specified) gave an inhibition in vivo at 5 mg/kg above 50%.

Consider `CC1(C)[C@@H](O)C[C@@H]2[C@@](C)(O)[C@@H]3CC[C@]4(O)C[C@@]3(C[C@@H](O)[C@@]21O)C[C@@]4(C)O`, for which the inhibition in vivo at 5 mg/kg was above 50%.

`C=C1[C@@H]2CC[C@@H]3[C@@H](O)[C@@]2(C[C@@H](O)[C@@]2(O)[C@H]1C[C@H](O)C2(C)C)C[C@@]3(C)O` yielded an inhibition in vivo at 5 mg/kg above 50%.

For the molecule `C=C1C2=C([C@H](O)C[C@@]34C[C@@H](CC[C@@H]13)[C@](C)(O)C4)C(C)(C)[C@@H](O)[C@H]2O`, the inhibition in vivo at 5 mg/kg was above 50%.

The molecule `C=C1[C@@H]2CC[C@@H]3[C@@H](OC(=O)CC)[C@@]2(C[C@@H](O)[C@@]2(O)[C@H]1C[C@H](O)C2(C)C)C[C@@]3(C)O` had an inhibition in vivo at 5 mg/kg above 50%.

With `C=C1[C@@H]2C[C@@H](O)[C@@H]3C[C@@]2(C[C@@H](O)[C@@]2(O)[C@H]1C[C@H](O)C2(C)C)C[C@@]3(C)O`, the inhibition in vivo at 5 mg/kg was above 50%.

`C=C1[C@@H]2CC[C@@H]3C[C@@]2(C[C@@H](O)[C@@]2(O)[C@H]1C[C@H](O)C2(C)C)C[C@@]3(C)OC` came in with an inhibition in vivo at 5 mg/kg above 50%.

`C=C1[C@@H]2[C@@H](OC)[C@H](O)C(C)(C)[C@@]2(O)[C@H](O)C[C@]23C=C(C)[C@H](CC[C@@H]12)[C@H]3O` yielded an inhibition in vivo at 5 mg/kg above 50%.

With `C=C1[C@@H]2CC[C@H]3C(C)=C[C@]2(C[C@@H](O)[C@@]2(O)[C@H]1C[C@H](O)C2(C)C)[C@@H]3O`, the inhibition in vivo at 5 mg/kg is above 50%.

The molecule `C=C1[C@@H]2CC[C@@H]3C[C@@]2(C[C@@H](O)[C@@]2(O)[C@H]1C[C@H](O)C2(C)C)C[C@@]3(C)O` displayed an inhibition in vivo at 5 mg/kg above 50%.

For `CC1=C2CC[C@@H]3C[C@@]2(C[C@@H](O)[C@@]2(O)[C@H]1C[C@H](O)C2(C)C)C[C@@]3(C)O`, the inhibition in vivo at 5 mg/kg was above 50%.

The subject of another assay is Mus musculus. The assay can be described thus: Antinociceptive activity in mouse as reduction in acetic acid-induced writhes at 0.2 to 1 mg/kg, ip relative to control. Type of assay: functional.
On to `CC1=C2CC[C@@H]3[C@@H](O)[C@@]2(C[C@@H](O)[C@@]2(O)[C@H]1[C@@H](O)[C@H](O)C2(C)C)C[C@@]3(C)O`, for which the “inhibition (INH)” value was above 50%.
